Source: US7037919B1, “Tetrahydroquinoline derivatives” (Kaken Pharmaceutical Co. Ltd., priority 1999, dated 2006)

Key:
[1] = test system: orchiectomized (ORX) rats; assay: Action of increasing prostate weight and bone mineral density in orchiectomized (ORX) rats (Test Example 4); format: in vivo, rat; conditions: 10 mg/kg s.c. once daily, 5 days weekly, 4 weeks, ORX SD rats, Mean ± SD
Description: Action of Increasing Prostate Weight and Bone Mineral Density in Orchiectomized (ORX) Rats
Orchiectomy was performed in 12-week-old male SD rats. From the next day postoperation, the positive control compound dihydrotestosterone (DHT, 10 mg/kg) and the compound of the present invention (Example 60, 60 mg/kg), each dissolved in a 5% dimethyl sulfoxide-containing olive oil solution, were subcutaneously injected once daily, 5 days weekly, for 4 weeks. On the next day after final administration, the wet weight of the ventral prostate was measured to evaluate the AR agonistic effect of the compound of the present invention. On the next day following final administration, moreover, the right femur was removed, and fixed overnight in a 10% neutrally buffered formalin solution. Then, the bone mineral density at the site ranging from the diaphysis to the proximal end was measured by the method of double energy X-ray absorption using a bone mineral content-measuring machine (Aloka, DCS-600) to evaluate increasing action of bone mineral density of the compound of the present invention.

[2] = target: T1, Rat androgen receptors (rat AR) (Rattus norvegicus, UniProt P15207); assay: Test for competitive binding to rat androgen receptors; conditions: 3H-testosterone, rat prostate AR fraction; hydroxyflutamide taken as 100
T1 construct: from tissue; host or cells: prostate of orchiectomized male SD rats (100,000 x g supernatant)
T1 sequence (P15207 1-902): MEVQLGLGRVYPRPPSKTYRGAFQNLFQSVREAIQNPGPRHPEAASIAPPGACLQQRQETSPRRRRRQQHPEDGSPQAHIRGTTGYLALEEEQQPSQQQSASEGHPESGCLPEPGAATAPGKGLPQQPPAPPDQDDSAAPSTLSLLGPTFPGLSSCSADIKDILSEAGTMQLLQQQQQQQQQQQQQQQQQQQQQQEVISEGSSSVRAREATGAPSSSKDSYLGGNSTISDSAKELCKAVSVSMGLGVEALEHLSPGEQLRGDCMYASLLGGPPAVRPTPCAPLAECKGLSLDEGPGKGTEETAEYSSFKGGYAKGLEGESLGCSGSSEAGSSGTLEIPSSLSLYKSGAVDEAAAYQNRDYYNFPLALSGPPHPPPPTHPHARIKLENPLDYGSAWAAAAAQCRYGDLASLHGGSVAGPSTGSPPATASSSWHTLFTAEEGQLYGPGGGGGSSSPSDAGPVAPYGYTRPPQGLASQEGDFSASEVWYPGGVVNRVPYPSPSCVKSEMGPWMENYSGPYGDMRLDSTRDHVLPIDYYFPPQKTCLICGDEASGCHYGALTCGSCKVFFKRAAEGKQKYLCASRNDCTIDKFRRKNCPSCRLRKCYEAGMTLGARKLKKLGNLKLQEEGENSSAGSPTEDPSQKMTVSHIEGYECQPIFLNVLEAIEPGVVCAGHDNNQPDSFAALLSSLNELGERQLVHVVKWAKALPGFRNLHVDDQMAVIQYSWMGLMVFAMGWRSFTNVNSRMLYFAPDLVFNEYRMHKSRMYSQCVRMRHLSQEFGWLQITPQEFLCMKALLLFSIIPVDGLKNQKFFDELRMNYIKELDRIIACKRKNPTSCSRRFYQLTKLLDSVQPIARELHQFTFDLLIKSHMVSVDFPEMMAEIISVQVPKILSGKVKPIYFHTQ
Description: Test for Competitive Binding to Rat Androgen Receptors (Rat AR)
Preparation of rat AR fraction: Prostates were harvested into ice-cooled ET buffer (10 mM Tris, 1 mM EDTA, 5 mM DTT, 10 mM sodium molybdate, pH 7.4) 3 days after orchiectomy in 11-week-old male SD rats. The prostate was finely cut, and ET buffer was added, whereafter the mixture was homogenized using a homogenizer. The homogenate was ultracentrifuged (100,000×g, 60 min, 4° C.), and the supernatant was used as a rat AR fraction (hereinafter referred to as ARF).
Binding test: ^3H-testosterone (hereinafter referred to as ^3H-T) was diluted with ET buffer. Dihydrotestosterone (DHT) was prepared so as to have a concentration (final concentration 1 μM) 400 times the maximum concentration of ^3H-T (2.5 nM). The ^3H-T solution was added to a 1.5 ml tube containing DHT, no DHT, or the test compound with a varying concentration. Further, 200 μg ARF was added to adjust the final volume to 100 μl. The mixture was incubated for 2 hours at 4° C., and then 300 μl of a 0.05% dextran T70-1.0% activated carbon solution was added. The mixture was further incubated for 15 minutes in ice to remove the free ^3H-T. After centrifugation (4° C., 2,500 rpm, 5 min), 275 μl of the supernatant was harvested into a liquid scintillation vial, and 2 ml of clear-sol was added. The mixture was stirred, allowed to stand, and measured for ^3H radioactivity with a liquid scintillation counter.
Calculation of the relative binding inhibition rate: The binding inhibition rate (%) of the compound according to the present invention was calculated from the following equation, and the 50% inhibition concentration (IC50) was calculated by the probit analysis of the concentration-binding inhibition curve.
The relative binding inhibition rate (RBA: Relative Binding Affinity) was obtained from the following equation (Endocrinology 138, 863-870, 1997): RBA=100×(IC50 of hydroxyflutamide)/(IC50 of the compound of the present invention) • RBA's of the compounds of the present invention, calculated as above, are shown in Table 10.

orchiectomized rats = assay: Action of increasing prostate weight in orchiectomized rats (Test Example 2, printed 21); format: in vivo, rat; conditions: for Weight of prostate: orchiectomized SD rats, Mean ± SD
Description: Action of Increasing Prostate Weight in Orchiectomized Rats
Testes were removed from 8- to 12-week-old male SD rats. From 5 days postoperation, the compound of the present invention (3, 30 mg/kg), suspended in a 0.5% methyl cellulose solution, was subcutaneously injected once daily for a consecutive week, and 6 days weekly for 8 consecutive weeks. On the next day after final administration, the wet weight of the ventral prostate was measured to evaluate the in vivo AR agonistic effect of the compound of the present invention.

AR = assay: Assignment of compounds as having AR agonistic or AR antagonistic action (description, no method given); conditions: compounds named as usable for category A diseases

SMILES | RBA (Relative Binding Affinity = 100 x IC50 of hydroxyflutamide / IC50 of the compound) [2] | AR agonistic action (AR) | further results
C[C@]12CCC(=O)C[C@@H]1CC[C@@H]1[C@@H]2CC[C@]2(C)[C@@H](O)CC[C@@H]12 [DHT, dihydrotestosterone, reference compound] | – | – | Prostate weight [1]: 150 ± 14 mg/body weight 100 g; Bone mineral density ([1]; right femur): 131 ± 7 mg/cm^2
CC(C)(CO)C1Nc2ccc([N+](=O)[O-])cc2C2C=CCC21 (stereo not shown) [Example 1, 2-methyl-2-(8-nitro-3a,4,5,9b-tetrahydro-3H-cyclopenta[c]quinolin-4-yl)-propan-1-ol] | 4751 | AR agonistic action | Weight of prostate (orchiectomized rats; 1-week treatment, 3 mg/kg s.c. once daily): 18 ± 4 mg/body weight (100 g); Weight of prostate (orchiectomized rats; 1-week treatment, 30 mg/kg s.c. once daily): 26 ± 3 mg/body weight (100 g); Weight of prostate (orchiectomized rats; 8-week treatment, 3 mg/kg s.c. 6 days weekly): 52 ± 8 mg/body weight (100 g); Weight of prostate (orchiectomized rats; 8-week treatment, 30 mg/kg s.c. 6 days weekly): 97 ± 14 mg/body weight (100 g); Prostate weights in comparison with the comparative example (orchiectomized rats; consecutively administered for 1 week (3, 30 mg/kg s.c.)): significantly increased prostate weights; Prostate weight relative to normal control (orchiectomized rats; duration of treatment extended to 8 weeks (3, 30 mg/kg s.c.)): restored the atrophied prostate up to the level of the normal control
CC(C)(CO)C1Nc2cccc([N+](=O)[O-])c2C2C=CCC21 (stereo not shown) [Example 7] | 65 | – | –
COC(C)(C)C1Nc2ccc([N+](=O)[O-])cc2C2C=CCC21 (stereo not shown) [Example 19] | 57 | – | –
CC(C)(OCc1ccccc1)C1Nc2ccc([N+](=O)[O-])cc2C2C=CCC21 (stereo not shown) [Example 21] | 74 | – | –
CC(=O)OCC(C)(C)C1Nc2ccc([N+](=O)[O-])cc2C2C=CCC21 (stereo not shown) [Example 23] | – | AR agonistic action | –
CC(C)(C)OC(=O)NCC(C)(C)C1Nc2ccc([N+](=O)[O-])cc2C2C=CCC21 (stereo not shown) [Example 25] | – | AR agonistic action | –
CC(C)(CCl)C1Nc2ccc([N+](=O)[O-])cc2C2C=CCC21 (stereo not shown) [Example 29] | 75 | – | –
CC(C)(CO)C1Nc2ccc(C#N)cc2C2C=CCC21 (stereo not shown) [Example 35, 4-(2-Hydroxy-1,1′-dimethyl-ethyl)-3a,4,5,9b-tetrahydro-3H-cyclopenta[c]quinoline-8-carbonitrile] | 236 | – | –
CC(=O)OCC(C)(C)C1Nc2ccc(C#N)cc2C2C=CCC21 (stereo not shown) [Example 40, acetic acid 2-(8-cyano-3a,4,5,9b-tetrahydro-3H-cyclopentatc[c]quinolin-4-yl)-2-methylpropyl ester] | 96 | – | –
CC(=O)NCC(C)(C)C1Nc2ccc([N+](=O)[O-])cc2C2C=CCC21 (stereo not shown) [Example 52] | 478 | – | –
CC(C)C(=O)NCC(C)(C)C1Nc2ccc([N+](=O)[O-])cc2C2C=CCC21 (stereo not shown) [Example 53] | 55 | – | –
CC(C)(CNC(=O)c1ccccc1)C1Nc2ccc([N+](=O)[O-])cc2C2C=CCC21 (stereo not shown) [Example 56] | – | AR agonistic action | –
CC(C)(CNS(C)(=O)=O)C1Nc2ccc([N+](=O)[O-])cc2C2C=CCC21 (stereo not shown) [Example 59] | 2288 | – | –
CC(C)(CNS(=O)(=O)c1ccc(F)cc1)C1Nc2ccc([N+](=O)[O-])cc2C2C=CCC21 (stereo not shown) [Example 61] | 169 | – | –
CC(=O)Nc1ccc(S(=O)(=O)NCC(C)(C)C2Nc3ccc([N+](=O)[O-])cc3C3C=CCC32)cc1 (stereo not shown) [Example 63] | 580 | – | –
CC(C)NC(=O)NCC(C)(C)C1Nc2ccc([N+](=O)[O-])cc2C2C=CCC21 (stereo not shown) [Example 64, 1-isopropyl-3-[2-methyl-2-(8-nitro-3a,4,5,9b-tetrahydro-3H-cyclopenta[c]quinolin-4-yl)-propyl]urea] | 298 | – | –
Cc1cccc(NC(=O)NCC(C)(C)C2Nc3ccc([N+](=O)[O-])cc3C3C=CCC32)c1 (stereo not shown) [Example 65] | – | AR agonistic action | –
CC(C)(CNC(=O)Nc1ccc([N+](=O)[O-])cc1)C1Nc2ccc([N+](=O)[O-])cc2C2C=CCC21 (stereo not shown) [Example 66] | – | AR agonistic action | –
CNC(=S)NCC(C)(C)C1Nc2ccc([N+](=O)[O-])cc2C2C=CCC21 (stereo not shown) [Example 67] | – | AR agonistic action | –
CCNC(=S)NCC(C)(C)C1Nc2ccc([N+](=O)[O-])cc2C2C=CCC21 (stereo not shown) [Example 68] | 491 | – | –
CC(=O)SCC(C)(C)C1Nc2ccc([N+](=O)[O-])cc2C2C=CCC21 (stereo not drawn) [Example 76, thioacetic acid S-[2-methyl-2-(8-nitro-3a,4,5,9b-tetrahydro-3H-cyclopenta[c]quinolin-4-yl)propyl]ester] | 131 | – | –
CC(C)(O)C(=O)Nc1ccc([N+](=O)[O-])c(C(F)(F)F)c1 [Hydroxyflutamide, hydroxyflutamide, reference compound] | 100 | – | –
